Data reported in patent publication US10683272B2 (THE JOHNS HOPKINS UNIVERSITY, priority 2014, dated 2020).
Where “and” joins values, the source holds several entries; their conditions need not be identical. Equal entries are not always repeated.

Test: radiation dosimetry (OLINDA/EXM) from baboon PET data
Assay type: Reference Adult Male based on baboon PET imaging data
Description: For each time-point, the activity concentration (in Bq/cm^3) was measured in each of the 14 delineated organs and multiplied by the organ volume to obtain the total activity per time point per organ. The measured values were then decay-corrected and divided by the baboon organ mass, determined by the CT density and volume from the drawn contours, and the injected radioactivity to obtain the fraction of initial radioactivity per gram (FIA/g) for each time point and each organ. The baboon FIA/g values were then converted to human FIA (per organ) using the following equation (Schwartz et al., 2011; Woodard et al., 1975): […]
That approach assumes that the concentration of activity in a particular tissue relative to the overall concentration in the whole body is preserved across species (i.e., organ concentration/total body concentration is the same for baboon and man). The resulting human FIA values were plotted as a function of time (nine data points) for each organ and fit to a bi-exponential expression: FIA(t)=A1.e^−(λ1^bio^.t)+A2.e^−(Δ2^bio^.t) (2)
where A1, A2, λ1bio, and λ2bio are fit parameters. The sum of A1 and A2 give the back-extrapolated, time-zero fraction of administered radioactivity in each organ, and λ1bio and λ2bio are the biological clearance constants. The equation for the time-integrated activity coefficient [TIAC, previously known as residence time (Bolch et al., 2009) for each source organ was obtained, as its name implies, by integrating equation (2) and introducing a physical decay term, λφ, which depends on the isotope used:
TIACs were calculated for ^90Y, ^177Lu and ^86Y, with their corresponding physical decay constants: ^90Y λφ=0.01083 h^−1 (T1/2=64.0 h); ^177Lu λφ=0.00429 h^−1 (T1/2=161.52 h) and ^86Y λφ=0.04702 h^−1 (T1/2=14.74 h), respectively voiding. Radiation absorbed doses were obtained by converting time-integrated activity to absorbed doses according to the MIRD absorbed fraction methodology (Bolch et al., 2009) through the use of the OLINDA/EXM software (Stabin et al., 2005). The TIAC for the urinary bladder was obtained using the MIRD bladder model implemented in OLINDA/EXM. Input to that model requires the whole-body TIAC, which was obtained from the equation FIA(t)=A. e^(−λ^bio^t) fitted to whole-body retention kinetics. The voiding interval was set to 2 h. The TIACs were then input into OLINDA/EXM (Stabin et al., 2005), and the resulting absorbed dose per unit of radioactivity obtained for the 14 organs. The specific kidney model in OLINDA/EXM was used to obtain the renal cortex dose values. The absorbed dose from organs external to the kidney was added to the renal cortex dose calculated from the internal kidney model. The specific prostate model was used for prostate self-dose, and external dose to the bladder was added as a surrogate for the whole body to prostate dose. The self-dose component of the absorbed dose per unit activity for the salivary glands was obtained using 3D-RD Monte Carlo (EGSnrc) and a human CT with delineated salivary glands. The cross-dose component was taken by assuming the same cross-dose for a like-sized organ (pancreas).
Measured activity concentration (in Bq/cm^3) values per time point per organ were decay-corrected and divided by the baboon organ mass, determined by the CT density and volume from the drawn contours, and the injected radioactivity to obtain the fraction of initial radioactivity per gram (FIA/g) for each time point and each organ. The baboon FIA/g values were then converted to human FIA (per organ) using the related equation (Olszewski et al., 2004; Schwartz et al., 2011). The resulting human FIA values were then plotted as a function of time and fit to a bi-exponential expression and the value for the time-integrated activity coefficient (TIAC, previously known as residence time (Woodard et al., 1975)) for each source organ was calculated. […]

O=C([O-])CN1CCN(CC(=O)[O-])CCN(CC(=O)[O-])C(Cc2ccc(NC(=S)NCCCCNC(=O)CCCCCCC(=O)NCCCC[C@H](NC(=O)N[C@@H](CCC(=O)O)C(=O)O)C(=O)O)cc2)CN(CC(=O)[O-])CC1.[86Y+3] (some centres unmarked) [^86Y-6]
Organ absorbed dose, Adrenals (^86Y): 8.62E−02 mGy/MBq
Organ absorbed dose, Brain (^86Y): 2.30E−02 mGy/MBq
Organ absorbed dose, Breasts (^86Y): 4.52E−02 mGy/MBq
Organ absorbed dose, Gallbladder wall (^86Y): 7.88E−02 mGy/MBq
Organ absorbed dose, Heart wall (^86Y): 6.70E−02 mGy/MBq
Organ absorbed dose, Kidneys (^86Y): 4.03E−01 mGy/MBq
Organ absorbed dose, LLI wall (^86Y): 9.61E−02 mGy/MBq
Organ absorbed dose, Liver (^86Y): 7.19E−02 mGy/MBq
Organ absorbed dose, Lungs (^86Y): 5.98E−02 mGy/MBq
Organ absorbed dose, Muscle (^86Y): 5.47E−02 mGy/MBq
Organ absorbed dose, Osteogenic cells (^86Y): 7.19E−02 mGy/MBq
Organ absorbed dose, Ovaries (^86Y): 9.48E−02 mGy/MBq
Organ absorbed dose, Pancreas (^86Y): 8.09E−02 mGy/MBq
Organ absorbed dose, Prostate (^86Y): 7.64E−02 mGy/MBq
Organ absorbed dose, Red marrow (^86Y): 6.29E−02 mGy/MBq
Organ absorbed dose, Renal cortex (^86Y): 4.24E−01 mGy/MBq
Organ absorbed dose, Salivary glands (^86Y): 1.78E−01 mGy/MBq
Organ absorbed dose, Skin (^86Y): 3.97E−02 mGy/MBq
Organ absorbed dose, Small intestine (^86Y): 8.72E−02 mGy/MBq
Organ absorbed dose, Spleen (^86Y): 7.23E−02 mGy/MBq
Organ absorbed dose, Stomach wall (^86Y): 6.69E−02 mGy/MBq
Organ absorbed dose, Testes (^86Y): 7.23E−02 mGy/MBq
Organ absorbed dose, Thymus (^86Y): 5.38E−02 mGy/MBq
Organ absorbed dose, Thyroid (^86Y): 5.07E−02 mGy/MBq
Organ absorbed dose, ULI wall (^86Y): 8.56E−02 mGy/MBq
Organ absorbed dose, Urinary bladder wall (^86Y): 6.17E−01 mGy/MBq
Organ absorbed dose, Uterus (^86Y): 1.34E−01 mGy/MBq
Time-integrated activity coefficient (residence time), Brain (^86Y): 1.41E−02 MBq-h/MBq
Time-integrated activity coefficient (residence time), Heart contents (^86Y): 2.55E−02 MBq-h/MBq
Time-integrated activity coefficient (residence time), Kidneys (^86Y): 4.08E−01 MBq-h/MBq
Time-integrated activity coefficient (residence time), Liver (^86Y): 1.37E−01 MBq-h/MBq
Time-integrated activity coefficient (residence time), Lungs (^86Y): 9.70E−02 MBq-h/MBq
Time-integrated activity coefficient (residence time), Muscle (^86Y): 4.76E−01 MBq-h/MBq
Time-integrated activity coefficient (residence time), Pancreas (^86Y): 6.37E−03 MBq-h/MBq
Time-integrated activity coefficient (residence time), Prostate (^86Y): 1.15E−03 MBq-h/MBq
Time-integrated activity coefficient (residence time), Remainder (^86Y): 3.64 MBq-h/MBq
Time-integrated activity coefficient (residence time), Renal cortex (^86Y): 3.23E−01 MBq-h/MBq
Time-integrated activity coefficient (residence time), Salivary Glands (^86Y): 4.45E−02 MBq-h/MBq
Time-integrated activity coefficient (residence time), Small intestine (^86Y): 9.31E−03 MBq-h/MBq
Time-integrated activity coefficient (residence time), Spleen (^86Y): 7.41E−03 MBq-h/MBq
Time-integrated activity coefficient (residence time), Stomach (^86Y): 6.44E−03 MBq-h/MBq
Time-integrated activity coefficient (residence time), ULI (^86Y): 1.99E−02 MBq-h/MBq
Time-integrated activity coefficient (residence time), Ur. bladder contents (^86Y): 7.41E−01 MBq-h/MBq
effective dose (^86Y, calculated in OLINDA/EXM): 0.099 mSv/MBq
Organ absorbed dose, Adrenals (^90Y): 3.46E−02 mGy/MBq
Organ absorbed dose, Brain (^90Y): 6.79E−03 mGy/MBq
Organ absorbed dose, Breasts (^90Y): 3.46E−02 mGy/MBq
Organ absorbed dose, Gallbladder wall (^90Y): 3.46E−02 mGy/MBq
Organ absorbed dose, Heart wall (^90Y): 5.33E−02 mGy/MBq
Organ absorbed dose, Kidneys (^90Y): 1.13 mGy/MBq
Organ absorbed dose, LLI wall (^90Y): 3.46E−02 mGy/MBq
Organ absorbed dose, Liver (^90Y): 4.99E−02 mGy/MBq
Organ absorbed dose, Lungs (^90Y): 6.57E−02 mGy/MBq
Organ absorbed dose, Muscle (^90Y): 1.32E−02 mGy/MBq
Organ absorbed dose, Osteogenic cells (^90Y): 5.26E−02 mGy/MBq
Organ absorbed dose, Ovaries (^90Y): 3.46E−02 mGy/MBq
Organ absorbed dose, Pancreas (^90Y): 4.64E−02 mGy/MBq
Organ absorbed dose, Prostate (^90Y): 4.78E−02 mGy/MBq
Organ absorbed dose, Red marrow (^90Y): 2.41E−02 mGy/MBq
Organ absorbed dose, Renal cortex (^90Y): 1.19 mGy/MBq
Organ absorbed dose, Salivary glands (^90Y): 2.79E−01 mGy/MBq
Organ absorbed dose, Skin (^90Y): 3.46E−02 mGy/MBq
Organ absorbed dose, Small intestine (^90Y): 4.29E−02 mGy/MBq
Organ absorbed dose, Spleen (^90Y): 1.64E−02 mGy/MBq
Organ absorbed dose, Stomach wall (^90Y): 3.46E−02 mGy/MBq
Organ absorbed dose, Testes (^90Y): 3.46E−02 mGy/MBq
Organ absorbed dose, Thymus (^90Y): 3.46E−02 mGy/MBq
Organ absorbed dose, Thyroid (^90Y): 3.46E−02 mGy/MBq
Organ absorbed dose, ULI wall (^90Y): 6.29E−02 mGy/MBq
Organ absorbed dose, Urinary bladder wall (^90Y): 1.25 mGy/MBq
Organ absorbed dose, Uterus (^90Y): 3.46E−02 mGy/MBq
Time-integrated activity coefficient (residence time), Brain (^90Y): 1.79E−02 MBq-h/MBq
Time-integrated activity coefficient (residence time), Heart contents (^90Y): 3.15E−02 MBq-h/MBq
Time-integrated activity coefficient (residence time), Kidneys (^90Y): 6.43E−01 MBq-h/MBq
Time-integrated activity coefficient (residence time), Liver (^90Y): 1.77E−01 MBq-h/MBq
Time-integrated activity coefficient (residence time), Lungs (^90Y): 1.22E−01 MBq-h/MBq
Time-integrated activity coefficient (residence time), Muscle (^90Y): 6.85E−01 MBq-h/MBq
Time-integrated activity coefficient (residence time), Pancreas (^90Y): 8.42E−03 MBq-h/MBq
Time-integrated activity coefficient (residence time), Prostate (^90Y): 1.42E−03 MBq-h/MBq
Time-integrated activity coefficient (residence time), Remainder (^90Y): 4.74 MBq-h/MBq
Time-integrated activity coefficient (residence time), Renal cortex (^90Y): 5.27E−01 MBq-h/MBq
Time-integrated activity coefficient (residence time), Salivary Glands (^90Y): 4.88E−02 MBq-h/MBq
Time-integrated activity coefficient (residence time), Small intestine (^90Y): 1.32E−02 MBq-h/MBq
Time-integrated activity coefficient (residence time), Spleen (^90Y): 1.15E−02 MBq-h/MBq
Time-integrated activity coefficient (residence time), Stomach (^90Y): 8.06E−03 MBq-h/MBq
Time-integrated activity coefficient (residence time), ULI (^90Y): 2.51E−02 MBq-h/MBq
Time-integrated activity coefficient (residence time), Ur. bladder contents (^90Y): 9.54E−01 MBq-h/MBq
Organ absorbed dose, Adrenals (^177Lu): 6.96E−03 mGy/MBq
Organ absorbed dose, Brain (^177Lu): 1.48E−03 mGy/MBq
Organ absorbed dose, Breasts (^177Lu): 6.08E−03 mGy/MBq
Organ absorbed dose, Gallbladder wall (^177Lu): 6.79E−03 mGy/MBq
Organ absorbed dose, Heart wall (^177Lu): 9.54E−03 mGy/MBq
Organ absorbed dose, Kidneys (^177Lu): 2.10E−01 mGy/MBq
Organ absorbed dose, LLI wall (^177Lu): 7.06E−03 mGy/MBq
Organ absorbed dose, Liver (^177Lu): 9.37E−03 mGy/MBq
Organ absorbed dose, Lungs (^177Lu): 1.16E−02 mGy/MBq
Organ absorbed dose, Muscle (^177Lu): 3.26E−03 mGy/MBq
Organ absorbed dose, Osteogenic cells (^177Lu): 1.94E−02 mGy/MBq
Organ absorbed dose, Ovaries (^177Lu): 7.05E−03 mGy/MBq
Organ absorbed dose, Pancreas (^177Lu): 9.34E−03 mGy/MBq
Organ absorbed dose, Prostate (^177Lu): 7.94E−03 mGy/MBq
Organ absorbed dose, Red marrow (^177Lu): 5.04E−03 mGy/MBq
Organ absorbed dose, Renal cortex (^177Lu): 0.245 mGy/MBq and 2.45E−01 mGy/MBq
Organ absorbed dose, Salivary glands (^177Lu): 4.76E−02 mGy/MBq
Organ absorbed dose, Skin (^177Lu): 6.01E−03 mGy/MBq
Organ absorbed dose, Small intestine (^177Lu): 8.30E−03 mGy/MBq
Organ absorbed dose, Spleen (^177Lu): 7.16E−03 mGy/MBq
Organ absorbed dose, Stomach wall (^177Lu): 7.88E−03 mGy/MBq
Organ absorbed dose, Testes (^177Lu): 6.56E−03 mGy/MBq
Organ absorbed dose, Thymus (^177Lu): 6.29E−03 mGy/MBq
Organ absorbed dose, Thyroid (^177Lu): 6.26E−03 mGy/MBq
Organ absorbed dose, ULI wall (^177Lu): 1.16E−02 mGy/MBq
Organ absorbed dose, Urinary bladder wall (^177Lu): 2.14E−01 mGy/MBq
Organ absorbed dose, Uterus (^177Lu): 7.76E−03 mGy/MBq
Time-integrated activity coefficient (residence time), Brain (^177Lu): 1.89E−02 MBq-h/MBq
Time-integrated activity coefficient (residence time), Heart contents (^177Lu): 3.30E−02 MBq-h/MBq
Time-integrated activity coefficient (residence time), Kidneys (^177Lu): 7.24E−01 MBq-h/MBq
Time-integrated activity coefficient (residence time), Liver (^177Lu): 1.88E−01 MBq-h/MBq
Time-integrated activity coefficient (residence time), Lungs (^177Lu): 1.28E−01 MBq-h/MBq
Time-integrated activity coefficient (residence time), Muscle (^177Lu): 8.15E−01 MBq-h/MBq
Time-integrated activity coefficient (residence time), Pancreas (^177Lu): 9.00E−03 MBq-h/MBq
Time-integrated activity coefficient (residence time), Prostate (^177Lu): 1.48E−03 MBq-h/MBq
Time-integrated activity coefficient (residence time), Remainder (^177Lu): 4.84 MBq-h/MBq
Time-integrated activity coefficient (residence time), Renal cortex (^177Lu): 6.02E−01 MBq-h/MBq
Time-integrated activity coefficient (residence time), Salivary Glands (^177Lu): 4.97E−02 MBq-h/MBq
Time-integrated activity coefficient (residence time), Small intestine (^177Lu): 1.43E−02 MBq-h/MBq
Time-integrated activity coefficient (residence time), Spleen (^177Lu): 1.29E−02 MBq-h/MBq
Time-integrated activity coefficient (residence time), Stomach (^177Lu): 8.46E−03 MBq-h/MBq
Time-integrated activity coefficient (residence time), ULI (^177Lu): 2.64E−02 MBq-h/MBq
Time-integrated activity coefficient (residence time), Ur. bladder contents (^177Lu): 1.00 MBq-h/MBq
highest mean absorbed dose, renal cortex (overview text b262): 1.9 mGy per MBq
